Reference: US20090054526A1, “INHIBITORS OF ANOREXIC LIPID HYDROLYSIS FOR THE TREATMENT OF EATING DISORDERS” (priority 2005, published 2009)
Blank lines part the entries; values can stand above or below the compound they belong to.

How the values were obtained:
ceramidase = assay: Ceramide hydrolysis in rat intestinal homogenate; format: biochemical; conditions: for inhibition of ceramide hydrolysis: pH 7.0, 50 μM 14C-octanoyl-D-sphingosine, 25 μg protein, 20 min, inhibitor concentration not given ('same concentration')
Method: Enzymatic hydrolysis of ceramide is measured in an assay containing 5-500 μg of intestinal protein incubated with 1-5000 μM of ^14C-ceramide [(N-[1-^14C]acyl-D-erythro sphingosine (with the acyl group being from six to twenty carbon atoms) and dilutions thereof with non-radioactive ceramide to obtain a specific activity of 0.1-100,000 dpm/pmol], which is sonicated in buffer or added in 5-50 μl of ethanol, to a total volume of 50-500 μl of 10-100 mM buffer (pH 3-11) initially utilizing 100 mM Tris-HCl (pH 8.0) containing 0-100 mM CHAPS, 0-10 mM DTT, 0-1% Nonidet P-40, 0-5 mg/ml of bovine serum albumin, and 0-500 mM NaCl with or without addition of D-erythro-MAPP (or a related compound; dissolved 1-10 μl ethanol) in a final concentration of 0.0001-1000 μM (1-10 μl ethanol is added to control assays). Incubations are carried out at 37° C. for 0-120 min and samples are withdrawn at 2-3 time points. The reaction in each sample is terminated by addition of 200-1000 μl of methanol:chloroform:heptane (28:25:20 v/v/v) and 50-400 μl of potassium carbonate buffer (pH 10). After mixing, the samples are centrifuged 1-20 min at low speed centrifugation and 50-400 μl of the upper phase is extracted and the radio-labeled product, free fatty acid, in the upper phase is quantified by liquid scintillation counting. From selected samples, another 50-400 μl aliquot of the upper phase as well as 50-400 μl of the lower phase are evaporated to dryness under a stream of nitrogen, re-dissolved in 10-200 μl of chloroform:methanol (19:1 v/v) and applied on thin-layer chromatography plates, eluted in chloroform:methanol:acetic acid (94:1:5 v/v/v) followed by quantification of the distribution of the radiolabeled free fatty acid in the two phases using a Phosphorlmager scanner (STORM; Molecular Dynamics, Sunnyvale, Calif., USA) and ImageQuant software (GE Health Care, Amersham, United Kingdom). The distribution of released fatty acid is used to calculate the total amount of product formed in each sample. […]

[1] = tested on: acylethanolamide hydrolyzing enzyme (FAAH and an enzyme different from FAAH) in rat intestinal homogenate; assay: OEA and anandamide (acylethanolamide) hydrolysis in rat intestinal homogenate; format: biochemical; conditions: for inhibition of OEA hydrolysis: pH 7.0, 50 μM 3H-OEA, 20 min, inhibitor concentration not given ('same concentration')
Method: Enzymatic hydrolysis of OEA is investigated in an assay containing 5-500 μg of intestinal protein incubated with 1-500 μM of ^3H-OEA ([1-^3H-ethanolamine]OEA and dilutions thereof with non-radioactive OEA to obtain a specific activity of 0.1-100,000 dpm/pmol) or ^3H-anandamide ([1−^3H-ethanolamine]anandamide and dilutions thereof with non-radioactive anandamide to obtain a specific activity of 0.1-100,000 dpm/pmol) in a total volume of 100-500 μl of 10-100 mM buffer (pH 3-11), initially utilizing 100 mM Tris-HCl (pH 8.0) containing 0-2 mM EDTA and 0-5 mg/ml of fatty acid-free bovine serum albumin with or without addition of D-erythro-MAPP (or a related compound; dissolved in 1-10 μl ethanol) in a final concentration of 0.0001-1000 μM (1-10 μl ethanol is added to control assays). Incubations are carried out at 37° C. for 0-120 min and samples are withdrawn at 2-3 time points. The reaction in a sample is terminated by addition of 200-1000 μl of chloroform:methanol (1:1 v/v) and cooling on ice, followed by 10 min centrifugation at low speed, where after 50-250 μl of the upper phase is extracted and the radio-labeled product ethanolamine formed is quantified by liquid scintillation counting. […]
The reaction in a sample is terminated by addition of 400 μl chloroform:methanol (1:1 v/v) and cooling on ice, followed by 10 min centrifugation at low speed, where after 100 μl of the upper phase is extracted and the radio-labeled product ethanolamine formed is quantified by liquid scintillation counting. In another set of experiments the following assay conditions are adjusted—in order to be identical to those of the ceramidase assay (see example 1B)—by using 25 μg of protein from rat intestinal (jejunum) homogenate in a total volume of 100 μl, 50 μM of ^3H-oleoylethanolamide (OEA; 25.000 dpm) or ^3H-anandamide (AEA; 25.000 dpm), 100 mM citrate phosphate (7.0), 8 mM CHAPS. […] Incubation at 37° C. is carried out for 0 and 20 min after establishment of linearity of product formation within this time frame. […]

dietary obese mice = assay: Sub-chronic food intake, water intake and body weight study in dietary obese mice; format: in vivo; conditions: for cumulative food intake: D-threo-NMAPPD 30 mg/kg, OEA 2 mg/kg, or both mixed, high-fat diet, mean±SEM
Method: Food intake studies are performed with male Sprague-Dawley rats (250-350 g) or male C57BL/6J mice (Charles River, Sulzfeld, Germany). […] These animals are left on the diet for 12 weeks before the experiment is commenced. The animals are group randomized into weight-matched groups of n=4-12 to receive up to four administrations (0.1-10 ml/kg p.o., i.p., s.c., or i.v.) of a test compound (e.g. MAPP or NMAPPD) or vehicle (saline optionally with Tween 80, polyethylene glycol, DMSO, ethanol, Cremophor excipient) with at least seven days interval. All compounds are administered just prior to the beginning of the dark period optionally after a 24 h fasting period. Food intake (digital balance) and water intake (registered gravimetrically or by means of lick counts) and activity (consecutive beam breaks) are monitored for at least 12 hours following the time of injection. After the treatment, the animals are euthanized by use of CO2 followed by decapitation.
3C. Furthermore, a study with dietary obese mice was carried out. After 12 weeks on high-fat diet, animals were stratified according to weight. At day −3, animals were randomised in 5 groups (n=9-10 in each group) to participate in one of following drug treatment groups; vehicle (5% Tween 80, 5% polyethylene glycol, 90% saline), OEA 2 mg/kg, OEA 5 mg/kg, D-threo-NMAPPD 30 mg/kg, D-threo-NMAPPD 30 mg/kg+OEA 2 mg/kg (mixed). The animals received one intraperitoneal injection daily (2 ml/kg) of vehicle or drug(s) suspended in vehicle at […]. The experiment was preceded by a 3 day run-in period with mock injections and handling to habituate the animals to the injection paradigm. On day 0 the animals were dosed for the first time. All animals were fed high-fat diet ad lib—also during the treatment period. Body weight, food and water intake was measured every other day for the following 14 days depending on the animal's state.

diet-induced obese rats = conditions: 5 mg/kg OEA i.p. daily, from day 2 and on, refs (9,22); cited from earlier work
diet-induced obese mice = conditions: 5 mg/kg OEA i.p. daily, from day 2 and on, refs (9,22); cited from earlier work

Structure (SMILES): NC(=O)c1cccc(-c2cccc(OC(=O)NC3CCCCC3)c2)c1 [URB597, cyclohexyl carbamic acid 3′-carbamoyl-biphenyl-3-yl ester, reference compound]
effect on ceramide hydrolysis over pH range (ceramidase; 10 μM URB597, pH profile (FIG. 3C)): completely unaffected | effect on hydrolysis of OEA and AEA over pH range ([1]; 10 μM URB597, pH 5.5 to pH 10.5 (FIG. 3C)): to varying degrees were inhibited | inhibition of acylethanolamide hydrolysis ([1]; 10 μM inhibitor, pH 7.0, 50 μM substrate, 25 μg protein, 20 min 37° C. (FIG. 2A)): approximately 79%

inhibition of ceramide hydrolysis (ceramidase): 30% | inhibition of OEA hydrolysis ([1]; 25 μg protein): 30% | dose dependence of inhibition of OEA hydrolysis ([1]; pH 7.0, increasing concentrations (FIG. 2C)): dose-dependent inhibition
Structure (SMILES): CCCCCCCCCCCCCC(=O)N[C@H](CO)[C@H](O)c1ccc([N+](=O)[O-])cc1 [D-threo-NMAPPD, (1R,2R) D-threo-N-myristoyl-2-amino-1-(4′-nitrophenyl)-1,3-propandiol]
food intake versus vehicle (dietary obese mice; D-threo-NMAPPD 30 mg/kg i.p. daily (alone and with OEA 2 mg/kg), from day 1): consistently and significantly reduced | water intake versus vehicle (dietary obese mice; daily i.p., D-threo-NMAPPD 30 mg/kg at day 1 and day 12, or with OEA 2 mg/kg (FIG. 4B)): significant decreased water intake | loss of body weight (dietary obese mice; day 12, daily i.p., D-threo-NMAPPD 30 mg/kg alone or with OEA 2 mg/kg, vehicle 3.7%): 8.9% | cumulative food intake (dietary obese mice; day 12, daily i.p.): 20.4 ± 1.2 g

Structure (SMILES): CCCCCCCC/C=C\CCCCCCCC(=O)NCCO [OEA, oleoylethanolamide, reference compound]
food intake versus vehicle (dietary obese mice; OEA 2 mg/kg i.p. daily, day 12): not significantly different | food intake versus vehicle (dietary obese mice; OEA 5 mg/kg i.p. daily, day 5 and 7): significantly reduced food intake | cumulative food intake (dietary obese mice; day 12, daily i.p.): 23.3 ± 1.0 g | body weight change (diet-induced obese rats): reduced body weight change | body weight change (diet-induced obese mice): reduced body weight change

inhibition of ceramide hydrolysis (ceramidase): approximately 24% | inhibition of OEA hydrolysis ([1]; 25 μg protein): 11% | effect on AEA hydrolysis ([1]; pH 7.0, 50 μM 3H-anandamide, inhibitor concentration not clearly printed): unaffected
Structure (SMILES): CCCCCCCCCCCCCC(=O)N[C@H](C)[C@@H](O)c1ccccc1 [D-erythro-MAPP, (1S,2R) D-erythro-N-myristoyl-2-amino-1-phenyl-propanol]
